Source: US20170027941A1, “Bruton's Tyrosine Kinase Inhibitor Combinations and Uses Thereof” (Pharmacyclics LLC, priority 2015, published 2017)

Legend:
Assay type in all cases: cell-based
pAkt = test: Western blot of pAkt in renal cancer cell lines
Text: (§1) Whole cell lysates in 1× sample buffer (Invitrogen) were electrophoresed on a 4%-12% Bis-Tris gel. After transferring the proteins onto a PVDF membrane, the blot was probed by antibodies, and the signal was detected using the Odyssey imager (LI-COR Biosciences). Paired mouse and rabbit antibodies were used to probe the total protein, and the corresponding phosphorylated proteins. The effect of ibrutinib treatment, with and without EGF stimulation/induction, on various proteins was studied. A one-hour pre-treatment with ibrutinib and a 10-minute stimulation with EGF was conducted. […] As such, ibrutinib ameliorates the effect (i.e., the undesired effects) of mTOR inhibitor alone.
(§2) Cell lysates were prepared from RCC cells which were treated with different concentrations of pazopanib for overnight incubation. Antibodies that correlate to the proteins of interest were used for detection.

pEGFR = test: Western blot of pEGFR in renal cancer cell lines; conditions: A498, 769-P, RENCA, ACHN; one-hour pre-treatment, 10-minute EGF stimulation
Text: as §1

pERK = test: Western blot of pERK in renal cancer cell lines; conditions: A498, 769-P, RENCA, ACHN; one-hour pre-treatment, 10-minute EGF stimulation
Text: as §1, §2

Row | Structure (SMILES) | pAkt (both pAkt T308 and pAkt S473) (pAkt; ACHN cell line, 24 h treatment, FIG. 8) | pAkt (pAkt; A498, 769-P, RENCA, ACHN, one-hour pre-treatment, 10-minute EGF stimulation) | EGF-induced pEGFR (pEGFR) | pERK (pERK)
1 | CO[C@H]1C[C@@H]2CC[C@@H](C)[C@@](O)(O2)C(=O)C(=O)N2CCCC[C@H]2C(=O)O[C@H]([C@H](C)C[C@@H]2CC[C@@H](OCCO)[C@H](OC)C2)CC(=O)[C@H](C)/C=C(\C)[C@@H](O)[C@@H](OC)C(=O)[C@H](C)C[C@H](C)/C=C/C=C/C=C/1C [everolimus] | induced up-regulation of pAkt |  |  | 
2 | C=CC(=O)N1CCC[C@@H](n2nc(-c3ccc(Oc4ccccc4)cc3)c3c(N)ncnc32)C1 [ibrutinib, 1-((R)-3-(4-amino-3-(4-phenoxyphenyl)-1H-pyrazolo[3,4-d]pyrimidin-1-yl)piperidin-1-yl)prop-2-en-1-one] |  | limited impacts | inhibits EGF-induced pEGFR | limited impacts
